As usually defined, the IC50 is the concentration needed to halve the response being measured.

These results are taken from PMC4490784, “Compensatory induction of MYC expression by sustained CDK9 inhibition via a BRD4-dependent mechanism” (eLife, 2015).

One assay has as its target T1, CDK1-CycB (Homo sapiens, UniProt P06493).
T1 construct: purchased Upstate/Millipore
The assay is described as follows: AlphaScreen-based kinase assay. It counts as biochemical. The protocol:
(§1) The inhibitory activity of i-CDK9 for CDK1-CycB (Upstate/Millipore), CDK2-CycA (Invitrogen), CDK4-CycD1 (Novartis), CDK7-CycH-MAT1 (Invitrogen), and CDK9-CycT1 (Invitrogen) was assessed in the AlphaScreen (PerkinElmer, Inc)-based kinase assay developed at Novartis. Briefly, each CDK–cyclin pair was pre-incubated with i-CDK9 for 15 min, followed by addition of kinase substrates (ELK for CDK1 and CDK2, RB for CDK4, and CDK7tide for CDK7 and CDK9). The mixture was incubated at room temperature for additional 4–5 hr. The reaction was stopped and read on Envision (PerkinElmer, Inc). Selectivity against a large panel of over 400 kinases was evaluated using the KINOMEscan platform (DiscoveRx, CA) employing a proprietary active site-directed competition binding assay ([Fabian et al., 2005]). The assay was conducted at two different concentrations of i-CDK9 (1 and 10 µM) by DiscoveRx.
(In general: Bead proximity is the source of the signal in Alpha formats.)

In a further assay the target is T2, CDK2-CycA (Homo sapiens, UniProt P24941).
T2 construct: purchased Invitrogen
Briefly: AlphaScreen-based kinase assay. It counts as biochemical. The protocol:
as §1

The next assay has as its target CDK4-CycD1 (Homo sapiens, UniProt P11802). Briefly: AlphaScreen-based kinase assay. The assay is classed as biochemical. The protocol: as §1
For a further assay, the target named is T3, CDK7-CycH-MAT1 (Homo sapiens, UniProt P50613).
T3 construct: purchased Invitrogen
Briefly: AlphaScreen-based kinase assay. The assay is classed as biochemical. The protocol: as §1

In assay [1] the target is T4, affinity-purified CDK12-F-CycK (Homo sapiens, UniProt Q9NYV4).
T4 construct: made in house
Briefly: In vitro kinase reaction, GST-CTD substrate, pSer2 Western blotting. It counts as biochemical. Conditions: even at 80 nM. The protocol: (§2) Figure 1. i-CDK9 is a potent and selective CDK9 inhibitor that elicits cellular responses indicative of P-TEFb inhibition. (A and B) Structures and selectivity profiles of i-CDK9 (A) and falvopiridol (B). […] (C) In vitro kinase reactions containing affinity-purified CDK9-F-CycT or CDK12-F-CycK and GST-CTD as a substrate were conducted in the presence of the indicated concentrations of i-CDK9. pSer2 and the Flag-tagged kinase in each reaction were detected by Western blotting with anti-pSer2 and anti-Flag antibodies, respectively. (D) HeLa cells were treated for 8 hr with DMSO or the indicated concentrations of i-CDK9. Total cell lysates were examined by immunoblotting for the proteins labeled on the left. DOI: http://dx.doi.org/10.7554/eLife.06535.003 Figure 1—source data 1. Selectivity profile of i-CDK9. DOI: http://dx.doi.org/10.7554/eLife.06535.004 Figure 1—figure supplement 1. Recombinant CDK12-CycK is less sensitive to inhibition by i-CDK9.
(§3) Among all members of the CDK super family, CDK12 deserves special attention because of its reported phosphorylation of the Pol II CTD on Ser2, an ability that is shared with CDK9 ([Bartkowiak et al., 2010]). […] Phosphorylation of Ser2 (pSer2) was detected by Western blotting with a specific antibody.
For orientation: Immunoblotting shows a protein as a band on a membrane.

For assay [2], the target named is T5, affinity-purified CDK9-F-CycT (Homo sapiens, UniProt P50750).
T5 construct: made in house; host or cells: probably the HeLa-based F1C2 cells
The description is as above. The assay is classed as biochemical. Conditions: read-out: estimated IC50 of Ser2 phosphorylation. The protocol: as §2, §3

The next assay concerns the target T6, recombinant CDK12-CycK (Homo sapiens, UniProt Q9NYV4).
T6 construct: purchased SignalChem; host or cells: baculovirus-produced
The assay is described as follows: In vitro kinase reaction with baculovirus-produced recombinant kinase (SignalChem). The assay is classed as biochemical.

The next assay has as its target CDK9-CycT1 (Homo sapiens, UniProt P50750). Briefly: AlphaScreen-based kinase assay. It counts as biochemical. The arrangement: purchased Invitrogen. The protocol: as §1
The target in assay [3] is T7, JAK1(JH2domain-pseudokinase) (Homo sapiens, UniProt P23458). Briefly: biochemical binding or enzymatic assay. As to conditions: Novartis. The arrangement: JAK1(JH2domain-pseudokinase). The protocol:
Finally, the selectivity profile of i-CDK9 toward other non-CDK kinases was also assessed using the KINOMEscan platform. […] Except for CLK4, for which no suitable assay was available, the rest of the kinases plus a selected group of others were re-examined for the concentration-dependent effect of i-CDK9 in either functional kinase assays or binding assays. […] Indeed, it has recently been reported that DYRK1A acts as a Pol II CTD Kinase at its target gene promoters ([Di Vona et al., 2015]).

In assay [4] the target is T7, JAK1(JH2domain-pseudokinase). Briefly: KINOMEscan binding assay. The arrangement: JAK1(JH2domain-pseudokinase); purchased DiscoveRx KINOMEscan. The protocol:
As there are no commercial or in-house kinase assays available for CDK3, CDK5, CDK11 and CDK13, the inhibitory abilities of i-CDK9 toward these CDKs were thus evaluated in the DiscoveRx KINOMEscan assay, which is based on a proprietary active site-directed competition-binding platform ([Fabian et al., 2005]).
as §1
Target sequence in this assay (P23458 561-860 limits assumed): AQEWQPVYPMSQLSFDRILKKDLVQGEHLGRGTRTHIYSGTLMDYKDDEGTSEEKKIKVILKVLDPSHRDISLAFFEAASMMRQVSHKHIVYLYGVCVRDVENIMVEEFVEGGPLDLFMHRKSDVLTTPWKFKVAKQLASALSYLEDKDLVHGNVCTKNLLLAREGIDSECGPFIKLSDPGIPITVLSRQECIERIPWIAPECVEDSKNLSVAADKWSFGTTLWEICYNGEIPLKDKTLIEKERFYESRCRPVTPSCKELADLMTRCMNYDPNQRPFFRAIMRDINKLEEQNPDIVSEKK

CDK9-CycT1, sequence (P50750 whole entry): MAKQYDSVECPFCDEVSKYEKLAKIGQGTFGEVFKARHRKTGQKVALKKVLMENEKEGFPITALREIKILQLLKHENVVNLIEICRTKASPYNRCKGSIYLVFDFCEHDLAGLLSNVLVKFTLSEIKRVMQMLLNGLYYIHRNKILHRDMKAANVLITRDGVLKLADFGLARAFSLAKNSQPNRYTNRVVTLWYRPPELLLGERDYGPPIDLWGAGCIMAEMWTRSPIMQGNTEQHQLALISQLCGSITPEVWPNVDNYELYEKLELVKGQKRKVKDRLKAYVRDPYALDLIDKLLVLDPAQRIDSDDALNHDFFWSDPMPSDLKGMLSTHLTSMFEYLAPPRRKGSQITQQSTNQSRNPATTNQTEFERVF
CDK9-CycT1, sequence (O60563 whole entry partner): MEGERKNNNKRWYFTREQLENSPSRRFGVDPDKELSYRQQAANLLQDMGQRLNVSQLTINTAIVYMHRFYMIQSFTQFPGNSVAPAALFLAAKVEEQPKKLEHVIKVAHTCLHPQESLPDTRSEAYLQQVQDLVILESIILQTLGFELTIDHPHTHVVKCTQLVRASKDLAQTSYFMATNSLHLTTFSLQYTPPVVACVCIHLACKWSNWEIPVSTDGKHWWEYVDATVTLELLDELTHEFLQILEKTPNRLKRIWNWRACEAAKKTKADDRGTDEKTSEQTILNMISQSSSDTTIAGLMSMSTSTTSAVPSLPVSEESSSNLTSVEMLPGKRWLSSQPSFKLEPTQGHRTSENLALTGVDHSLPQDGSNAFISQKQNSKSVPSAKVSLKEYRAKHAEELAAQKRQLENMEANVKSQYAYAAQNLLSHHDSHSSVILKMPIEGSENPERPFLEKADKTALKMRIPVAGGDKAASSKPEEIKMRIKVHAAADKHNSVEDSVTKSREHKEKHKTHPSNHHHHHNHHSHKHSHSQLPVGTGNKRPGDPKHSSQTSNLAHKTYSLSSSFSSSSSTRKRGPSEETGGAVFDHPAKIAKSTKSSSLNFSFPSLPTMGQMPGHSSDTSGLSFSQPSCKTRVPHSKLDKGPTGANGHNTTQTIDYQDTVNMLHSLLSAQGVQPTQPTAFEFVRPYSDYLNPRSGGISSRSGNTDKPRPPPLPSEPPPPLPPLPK
CDK4-CycD1, sequence (P11802 whole entry): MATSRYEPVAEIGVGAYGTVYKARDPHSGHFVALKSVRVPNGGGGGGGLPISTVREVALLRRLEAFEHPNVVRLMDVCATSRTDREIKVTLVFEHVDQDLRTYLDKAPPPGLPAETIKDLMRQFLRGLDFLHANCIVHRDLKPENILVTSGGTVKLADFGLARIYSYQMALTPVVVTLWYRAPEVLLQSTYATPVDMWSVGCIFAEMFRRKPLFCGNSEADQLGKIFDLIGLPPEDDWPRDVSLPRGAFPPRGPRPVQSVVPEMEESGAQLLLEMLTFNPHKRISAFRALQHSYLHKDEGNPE
CDK4-CycD1, sequence (P24385 whole entry partner): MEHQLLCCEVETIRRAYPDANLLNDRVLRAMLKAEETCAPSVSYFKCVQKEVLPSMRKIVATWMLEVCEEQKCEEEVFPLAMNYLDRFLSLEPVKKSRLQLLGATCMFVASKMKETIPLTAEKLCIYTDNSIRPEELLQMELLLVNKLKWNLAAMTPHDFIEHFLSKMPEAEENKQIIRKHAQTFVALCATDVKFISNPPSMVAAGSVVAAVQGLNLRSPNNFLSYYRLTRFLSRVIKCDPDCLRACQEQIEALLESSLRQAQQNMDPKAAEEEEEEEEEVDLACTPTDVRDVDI
T5 sequence (P50750 whole entry): as the sequence (P50750 whole entry) above
T5 sequence (O60563 whole entry partner): as the sequence (O60563 whole entry partner) above
T1 sequence (P06493 whole entry): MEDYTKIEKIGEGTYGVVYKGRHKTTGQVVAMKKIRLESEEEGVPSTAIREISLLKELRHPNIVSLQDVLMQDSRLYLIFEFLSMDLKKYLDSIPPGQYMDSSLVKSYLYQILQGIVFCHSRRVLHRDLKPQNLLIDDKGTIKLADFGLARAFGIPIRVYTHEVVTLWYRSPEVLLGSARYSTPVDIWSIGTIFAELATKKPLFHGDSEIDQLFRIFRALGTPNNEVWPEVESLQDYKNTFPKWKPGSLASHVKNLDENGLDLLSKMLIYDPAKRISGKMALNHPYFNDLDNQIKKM
T1 sequence (P14635 whole entry partner): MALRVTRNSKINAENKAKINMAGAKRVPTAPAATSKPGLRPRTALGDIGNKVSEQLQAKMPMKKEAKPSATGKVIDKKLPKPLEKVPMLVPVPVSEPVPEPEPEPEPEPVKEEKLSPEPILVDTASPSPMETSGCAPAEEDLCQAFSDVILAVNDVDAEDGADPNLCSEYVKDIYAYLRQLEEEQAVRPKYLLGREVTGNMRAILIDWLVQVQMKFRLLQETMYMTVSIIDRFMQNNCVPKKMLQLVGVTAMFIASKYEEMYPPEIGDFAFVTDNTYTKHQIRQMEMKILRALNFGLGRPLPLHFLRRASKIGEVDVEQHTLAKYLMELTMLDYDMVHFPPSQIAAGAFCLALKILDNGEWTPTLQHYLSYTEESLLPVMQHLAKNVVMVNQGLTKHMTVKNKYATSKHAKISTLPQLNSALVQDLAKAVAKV
T4 sequence (Q9NYV4 whole entry): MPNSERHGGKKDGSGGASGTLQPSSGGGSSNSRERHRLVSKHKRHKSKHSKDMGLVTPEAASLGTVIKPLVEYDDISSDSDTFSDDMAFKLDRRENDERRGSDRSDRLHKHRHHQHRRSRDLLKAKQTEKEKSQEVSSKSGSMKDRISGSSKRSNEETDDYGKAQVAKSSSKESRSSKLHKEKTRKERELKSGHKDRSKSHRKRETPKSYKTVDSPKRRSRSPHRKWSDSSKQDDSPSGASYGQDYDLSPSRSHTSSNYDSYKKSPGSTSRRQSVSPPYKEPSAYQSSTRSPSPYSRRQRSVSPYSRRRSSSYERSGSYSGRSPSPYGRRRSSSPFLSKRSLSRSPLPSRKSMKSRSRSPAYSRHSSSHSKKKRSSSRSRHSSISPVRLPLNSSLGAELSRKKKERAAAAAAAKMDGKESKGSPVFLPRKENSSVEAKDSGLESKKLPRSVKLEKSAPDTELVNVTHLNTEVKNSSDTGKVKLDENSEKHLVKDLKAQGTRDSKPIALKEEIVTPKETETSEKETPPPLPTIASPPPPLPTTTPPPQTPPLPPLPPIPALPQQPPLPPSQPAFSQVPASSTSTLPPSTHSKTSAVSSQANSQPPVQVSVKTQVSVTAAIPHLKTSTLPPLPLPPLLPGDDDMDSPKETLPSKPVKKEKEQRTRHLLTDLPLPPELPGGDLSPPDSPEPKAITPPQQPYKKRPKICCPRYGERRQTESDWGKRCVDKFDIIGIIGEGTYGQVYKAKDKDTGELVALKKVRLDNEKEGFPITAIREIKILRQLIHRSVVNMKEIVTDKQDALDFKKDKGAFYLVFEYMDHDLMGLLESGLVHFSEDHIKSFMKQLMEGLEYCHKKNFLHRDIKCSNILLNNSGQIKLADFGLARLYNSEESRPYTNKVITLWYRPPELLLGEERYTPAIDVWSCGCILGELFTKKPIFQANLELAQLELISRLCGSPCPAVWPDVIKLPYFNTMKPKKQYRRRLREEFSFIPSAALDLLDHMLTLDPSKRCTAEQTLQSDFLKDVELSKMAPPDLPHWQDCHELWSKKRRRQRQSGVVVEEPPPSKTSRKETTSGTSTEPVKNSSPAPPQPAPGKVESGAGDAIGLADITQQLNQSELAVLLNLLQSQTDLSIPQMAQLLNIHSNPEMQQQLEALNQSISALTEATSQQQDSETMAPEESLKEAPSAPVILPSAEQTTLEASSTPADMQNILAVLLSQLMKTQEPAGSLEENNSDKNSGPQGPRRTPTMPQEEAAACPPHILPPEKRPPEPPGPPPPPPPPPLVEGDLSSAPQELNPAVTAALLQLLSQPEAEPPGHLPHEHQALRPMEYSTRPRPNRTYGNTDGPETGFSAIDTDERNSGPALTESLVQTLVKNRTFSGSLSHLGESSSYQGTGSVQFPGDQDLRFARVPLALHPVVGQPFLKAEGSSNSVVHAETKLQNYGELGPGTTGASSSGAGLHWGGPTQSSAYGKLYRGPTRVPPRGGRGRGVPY
T4 sequence (O75909 whole entry partner): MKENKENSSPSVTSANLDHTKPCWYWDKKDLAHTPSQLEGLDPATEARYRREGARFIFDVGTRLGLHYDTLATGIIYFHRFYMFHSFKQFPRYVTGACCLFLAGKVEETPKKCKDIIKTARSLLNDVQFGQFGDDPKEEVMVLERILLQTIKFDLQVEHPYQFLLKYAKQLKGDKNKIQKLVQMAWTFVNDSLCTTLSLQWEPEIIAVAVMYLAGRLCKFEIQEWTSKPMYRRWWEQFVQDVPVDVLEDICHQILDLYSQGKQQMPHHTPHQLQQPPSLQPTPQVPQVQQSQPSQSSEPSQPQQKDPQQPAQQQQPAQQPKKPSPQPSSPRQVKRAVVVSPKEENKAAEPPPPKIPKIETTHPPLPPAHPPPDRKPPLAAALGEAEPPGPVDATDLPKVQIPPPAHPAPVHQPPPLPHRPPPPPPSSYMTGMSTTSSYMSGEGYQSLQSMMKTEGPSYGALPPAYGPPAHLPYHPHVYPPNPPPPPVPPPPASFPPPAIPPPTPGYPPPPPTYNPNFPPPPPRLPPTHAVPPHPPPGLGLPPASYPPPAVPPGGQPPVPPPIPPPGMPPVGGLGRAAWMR
T6 sequence (Q9NYV4 whole entry): as the sequence (Q9NYV4 whole entry) above
T6 sequence (O75909 whole entry partner): as the sequence (O75909 whole entry partner) above

Turning to `N[C@H]1CC[C@H](Nc2cc(-c3cccc(NCc4cccc(F)c4)n3)c(Cl)cn2)CC1` [i-CDK9, N2′-(trans-4-aminocyclohexyl)-5′-chloro-N6-(3-fluorobenzyl)-2,4′-bipyridine-2′,6-diamine], the IC50 at CDK1-CycB is 1.7 µM; at CDK2-CycA, 0.24 µM; at CDK4-CycD1, 1.8 µM; on CDK7-CycH-MAT1, 2 µM; in assay [2], roughly 0.002 µM; against CDK9-CycT1, no more than 0.0004 µM. The same molecule gave an IC50 in [3] greater than 10 µM. Also, the “inhibition of Ser2 phosphorylation” value in assay [1] is “no obvious inhibition”. Further, the “i-CDK9 concentration at which the kinase was significantly inhibited” value at recombinant CDK12-CycK was in the range of 640 to 1200 nM. Further, at CDK9-CycT1 (selectivity), the “fold lower activity toward CDK1-CycB, CDK2-CycA, CDK4-CycD1, CDK7-CycH-MAT1 and CDK8-CycC compared to CDK9-CycT1” value is reported as “at least 600 fold”. In addition, the “% Retention on Solid Support” value in [4] (1 µM i-CDK9) amounted to 85%; in assay [4] (10 µM i-CDK9) it was 81%.
